In data set [1] the target is T1, Receptor-type tyrosine-protein kinase FLT3 (Homo sapiens, UniProt P36888).
T1 sequence (P36888 whole entry): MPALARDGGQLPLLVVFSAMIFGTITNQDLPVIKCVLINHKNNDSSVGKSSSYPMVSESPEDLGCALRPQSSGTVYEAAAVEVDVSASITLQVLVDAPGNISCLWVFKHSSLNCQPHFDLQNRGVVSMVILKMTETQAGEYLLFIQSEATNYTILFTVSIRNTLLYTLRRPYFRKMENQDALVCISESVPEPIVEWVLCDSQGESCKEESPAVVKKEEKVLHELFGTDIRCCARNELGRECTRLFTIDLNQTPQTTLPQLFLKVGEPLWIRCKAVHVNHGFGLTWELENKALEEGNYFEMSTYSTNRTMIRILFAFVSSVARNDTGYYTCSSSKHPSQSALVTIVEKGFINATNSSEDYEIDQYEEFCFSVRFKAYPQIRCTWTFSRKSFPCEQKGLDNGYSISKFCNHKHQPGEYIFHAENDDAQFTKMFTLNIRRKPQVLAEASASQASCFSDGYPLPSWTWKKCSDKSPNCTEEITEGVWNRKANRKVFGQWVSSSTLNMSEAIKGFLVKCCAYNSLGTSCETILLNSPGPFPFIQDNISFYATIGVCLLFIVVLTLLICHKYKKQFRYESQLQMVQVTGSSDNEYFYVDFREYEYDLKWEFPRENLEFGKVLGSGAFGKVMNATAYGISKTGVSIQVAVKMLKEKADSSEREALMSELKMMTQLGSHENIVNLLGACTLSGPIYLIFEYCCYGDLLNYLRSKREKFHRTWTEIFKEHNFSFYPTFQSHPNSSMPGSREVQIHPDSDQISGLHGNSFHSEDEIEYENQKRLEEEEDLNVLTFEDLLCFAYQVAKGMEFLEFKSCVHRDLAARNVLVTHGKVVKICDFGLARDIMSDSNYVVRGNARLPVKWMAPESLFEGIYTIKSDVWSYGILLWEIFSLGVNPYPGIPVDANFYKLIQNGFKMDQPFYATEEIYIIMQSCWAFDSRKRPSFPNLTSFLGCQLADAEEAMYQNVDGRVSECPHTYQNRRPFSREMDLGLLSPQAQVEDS
Description: Inhibition of human recombinant His-tagged FLT3 kinase domain (564 to 958 residues) expressed in baculovirus expression system incubated for 30 mins in presence of ATP by HTRF analysis. A general note: In TR-FRET formats the signal depends on donor and acceptor labels being close together.

Data set [2] deals with Receptor-type tyrosine-protein kinase FLT3 (Homo sapiens, UniProt P36888, D835Y). Description: Inhibition of human recombinant His-tagged FLT3/D835Y mutant expressed in baculovirus expression system incubated for 30 mins in presence of ATP by HTRF analysis.
The subject of a further data set is MV4-11. The data set is described as follows: Antiproliferative activity against human MV4-11 cells assessed as inhibition of cell growth incubated for 72 hrs by EZ-Cytox colorimetric assay. The class given is functional.
Data set [3] concerns MOLM-14. The data set is described as follows: Antiproliferative activity against human MOLM-14 cells assessed as inhibition of cell growth incubated for 72 hrs by EZ-Cytox colorimetric assay. The class given is functional.
Data set [4] concerns MOLM-14. The data set is described as follows: Antiproliferative activity against human MOLM-14 cells harboring FLT3 ITD/D835Y double mutant assessed as inhibition of cell growth incubated for 72 hrs by EZ-Cytox colorimetric assay. The data set is classed as functional.
Data set [5] deals with MOLM-14. The data set is described as follows: Antiproliferative activity against human MOLM-14 cells harboring FLT3 ITD/F691L double mutant assessed as inhibition of cell growth incubated for 72 hrs by EZ-Cytox colorimetric assay. The class given is functional.
The subject of data set [6] is BaF3. Description: Antiproliferative activity against mouse BaF3 cells harboring FLT3 ITD mutant assessed as inhibition of cell growth incubated for 72 hrs by EZ-Cytox colorimetric assay. The data set is classed as functional.
The subject of data set [7] is BaF3. The data set is described as follows: Antiproliferative activity against mouse BaF3 cells harboring FLT3 ITD/D835Y double mutant assessed as inhibition of cell growth incubated for 72 hrs by EZ-Cytox colorimetric assay. The data set is classed as functional.
Data set [8] deals with BaF3. Description: Antiproliferative activity against mouse BaF3 cells harboring FLT3 ITD/F691L double mutant assessed as inhibition of cell growth incubated for 72 hrs by EZ-Cytox colorimetric assay. The class given is functional.
Another data set has as its system Huh-7. Description: Antiproliferative activity against human Huh-7 cells assessed as inhibition of cell growth incubated for 72 hrs by EZ-Cytox colorimetric assay. The data set is classed as functional.
For a further data set, the system named is HepG2. The data set is described as follows: Antiproliferative activity against human HepG2 cells assessed as inhibition of cell growth at 1 uM incubated for 72 hrs by EZ-Cytox colorimetric assay relative to control. The class given is functional.
The subject of a further data set is K562. The data set is described as follows: Antiproliferative activity against human K562 cells assessed as inhibition of cell growth at 1 uM incubated for 72 hrs by EZ-Cytox colorimetric assay relative to control. The class given is functional.
Another data set has as its system A549. Description: Antiproliferative activity against human A549 cells assessed as inhibition of cell growth at 1 uM incubated for 72 hrs by EZ-Cytox colorimetric assay relative to control. The class given is functional.
A further data set deals with MDA-MB-231. The data set is described as follows: Antiproliferative activity against human MDA-MB-231 cells assessed as inhibition of cell growth at 1 uM incubated for 72 hrs by EZ-Cytox colorimetric assay relative to control. The data set is classed as functional.
The test system of the next data set is HCT-116. The data set is described as follows: Antiproliferative activity against human HCT-116 cells assessed as inhibition of cell growth at 1 uM incubated for 72 hrs by EZ-Cytox colorimetric assay relative to control. The data set is classed as functional.
The test system of the next data set is PC-3. Description: Antiproliferative activity against human PC-3 cells assessed as inhibition of cell growth at 1 uM incubated for 72 hrs by EZ-Cytox colorimetric assay relative to control. The data set is classed as functional.
A short description of data set [9]: AUClast in ICR mouse at 10 mg/kg, iv measured upto 24 hrs. The class given is ADME, organism-based. Details: time < 24 hrs, dose 10 mg/kg, route iv. The settings on record: in vivo.
Data set [10] in a line: Clearance in ICR mouse at 10 mg/kg, iv measured upto 24 hrs. The class given is ADME, organism-based. The settings on record: in vivo.
Data set [11] is described as follows: Volume of distribution at steady state in ICR mouse at 10 mg/kg, iv measured upto 24 hrs. The data set is classed as ADME, organism-based. The settings on record: in vivo, read-out: Vdss.
Data set [12] is described as follows: Half life in ICR mouse at 10 mg/kg, iv measured upto 24 hrs. The class given is ADME, organism-based. The settings on record: in vivo.

As usually defined, the IC50 is the concentration that inhibits the measured activity by half. In general, GI50 refers to the concentration at which growth is held to half of that of the control. With `O=C(CO/N=C1/C(=C2/C(=O)Nc3ccccc32)Nc2ccccc21)N[C@H]1CCNC1`, the IC50 in data set [1] amounted to 0.64 nM; in data set [2] it was 0.2 nM. For the same compound, the 50% growth inhibitory concentration (GI50) with MV4-11 was 0.68 nM; with MOLM-14 [3] it was 5.35 nM; in the data set with MOLM-14 [4], 4.88 nM; in the data set on MOLM-14 [5], 10.7 nM.
One may read the inhibition as the change of the read-out against control, counted positive when it falls. As for `CCc1nc(C(N)=O)c(Nc2ccc(N3CCC(N4CCN(C)CC4)CC3)c(OC)c2)cc1NC1CCOCC1`, the GI50 is 8.2 nM in the data set on MV4-11; 35.4 nM with MOLM-14 [3]; 19.4 nM in the data set on MOLM-14 [4]; 70.1 nM with MOLM-14 [5]; 1.9 nM with BaF3 [6]; 2.45 nM in the data set with BaF3 [7]. The values for the GI50 in the data set with BaF3 [8] and with Huh-7 were 38 nM and 435 nM, respectively. For the same compound, the inhibition at 1 µM in the data set on HepG2 was 46.9%; in the data set with K562 it was 74.6%; with A549, 4.31%; in the data set with MDA-MB-231 it was 42.1%; in the data set with HCT-116 it was 47.7%; in the data set with PC-3, 44.3%.
The AUC(0-t) is the area under the concentration-time curve up to a stated or last time point. A low value points to less exposure. As usually defined, the clearance is the volume of plasma or blood freed of the substance per unit of time. One may read the half-life as the time in which the quantity being followed falls by half. Lower therefore signals fast loss. On to `Cl.O=C(CO/N=C1/C(=C2/C(=O)Nc3ccccc32)Nc2ccccc21)N[C@@H]1CCNC1`, for which the IC50 in data set [1] is 0.29 nM; in data set [2], 0.2 nM. Further, the GI50 with MV4-11 is 0.52 nM; in the data set on MOLM-14 [3], 2.73 nM; with MOLM-14 [4], 3.49 nM; in the data set on MOLM-14 [5] it was 3.23 nM. In addition, the AUC(0-t) at 24 h in [9] was found to be 367 ng·h/mL. For the same compound, the clearance in data set [10] was 323 mL/min/kg. Moreover, the Vd in data set [11] came out at 103 L/kg. The compound also showed a half-life in data set [12] of 3.7 h.
